Literature values, collected in patent publication US6583130B1, “C13-substituted estra-1,3,5,(10)-trien-3-yl sulfamates, methods of preparing same, and pharmaceutical compositions containing these compounds” (Schering AG, priority 1999, dated 2003).

What was measured:
uterine growth = details: ovariectomized rats; Purohit et al. 1998
sulfatase = target: T1, sulfatase (Homo sapiens, UniProt P08842); details: as described in the cited literature
T1 sequence (P08842 22-583): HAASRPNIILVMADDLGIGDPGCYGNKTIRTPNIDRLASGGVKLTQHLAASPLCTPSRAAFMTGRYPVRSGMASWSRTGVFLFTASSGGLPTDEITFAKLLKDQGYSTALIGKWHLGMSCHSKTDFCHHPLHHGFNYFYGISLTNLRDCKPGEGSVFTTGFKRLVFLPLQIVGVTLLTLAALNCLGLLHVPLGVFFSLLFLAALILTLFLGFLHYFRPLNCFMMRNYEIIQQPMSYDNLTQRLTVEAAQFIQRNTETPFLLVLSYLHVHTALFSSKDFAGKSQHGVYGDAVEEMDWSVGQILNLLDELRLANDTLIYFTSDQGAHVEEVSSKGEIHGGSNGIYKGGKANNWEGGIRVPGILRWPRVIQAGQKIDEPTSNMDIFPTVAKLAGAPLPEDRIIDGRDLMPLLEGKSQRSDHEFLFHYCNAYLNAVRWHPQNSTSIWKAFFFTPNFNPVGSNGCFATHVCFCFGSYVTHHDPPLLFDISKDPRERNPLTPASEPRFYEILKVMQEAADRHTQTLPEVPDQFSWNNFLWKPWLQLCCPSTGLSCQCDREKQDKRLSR

estrogenic effect = details: as described in the cited literature (Elger et al. 1995; WO 97/14712)

sulfatase inhibition (sulfatase)	Structure (SMILES)	estrogenic effect on uterine growth (uterine growth)	estrogenic effect (estrogenic effect)
potent sulfatase inhibitor	COc1cc2c(cc1OS(N)(=O)=O)CC[C@@H]1[C@@H]2CC[C@]2(C)C(=O)CC[C@@H]12 [2-methoxyestrone 3-O-sulfamate]	does not exhibit any estrogenic effect	
sulfatase inhibitor	CC(=O)NS(=O)(=O)Oc1ccc2c(c1)CC[C@@H]1[C@@H]2CC[C@]2(C)C(=O)CC[C@@H]12 [N-acetylestrone 3-O-sulfamate]		strong estrogenic effect

Structure (SMILES)	sulfatase inhibition (sulfatase)	estrogenic effect on uterine growth (uterine growth)	estrogenic effect (estrogenic effect)
C[C@]12CC[C@@H]3c4ccc(OS(N)(=O)=O)cc4CC[C@H]3[C@@H]1CCC2=O [estrone 3-O-sulfamate]	strong sulfatase inhibitor		strong estrogenic effect
